From ChEMBL document CHEMBL5244224, “Antioxidant Activity of Natural Allylpolyalkoxybenzene Plant Essential Oil Constituents” (J Nat Prod, 2019)
Calls of active or inactive are those of the source. The rule behind the calls is not given here.

Key:
Erythrocyte [1] = assay: Antioxidant activity in H2O2-induced mouse RBC cells assessed as inhibition of methemoglobin formation at 0.01 mM preincubated with compound for 30 mins followed by H2O2 addition and measured after 5 hrs; assay type: functional, cell-based; conditions: time 5.5 hrs
Mus musculus [2] = species: Mus musculus; assay: Antioxidant activity in mouse brain homogenate assessed as inhibition of FeSO4/ascorbic acid induced lipid autoxidation by measuring reduction in TBARS formation at 0.1 mM preincubated with compound for 30 mins followed by FeSO4/ascorbic acid addition and measured after 1 hrs by TBARS assay; assay type: functional; conditions: time 1.5 hrs
Mus musculus [3] = species: Mus musculus; assay: Antioxidant activity in mouse brain homogenate assessed as inhibition of FeSO4/ascorbic acid induced lipid autoxidation by measuring reduction in TBARS formation at 1 mM preincubated with compound for 30 mins followed by FeSO4/ascorbic acid addition and measured after 1 hrs by TBARS assay; assay type: functional; conditions: time 1.5 hrs
Erythrocyte [4] = assay: Antioxidant activity in mouse RBC assessed as inhibition of H2O2-induced hemolytic activity at 0.01 mM preincubated with compound for 30 mins followed by H2O2 addition and measured for 5 hrs; assay type: functional, cell-based; conditions: time 5.5 hrs
[5] = Antioxidant activity assessed as DPPH radical scavenging capacity at 0.1 mM incubated for 30 mins under dark condition by absorbance based assay; assay type: functional
[6] = Antioxidant activity assessed as DPPH radical scavenging capacity at 1 mM incubated for 30 mins under dark condition by absorbance based assay; assay type: functional
Erythrocyte [7] = assay: Antioxidant activity in mouse RBC assessed as inhibition of H2O2-induced hemolytic activity at 0.1 mM preincubated with compound for 30 mins followed by H2O2 addition and measured after 5 hrs; assay type: functional, cell-based; conditions: time 5.5 hrs
Erythrocyte [8] = assay: Antioxidant activity in H2O2-induced mouse RBC cells assessed as inhibition of ferryl-hemoglobin formation at 0.01 mM preincubated with compound for 30 mins followed by H2O2 addition and measured after 5 hrs; assay type: functional, cell-based; conditions: time 5.5 hrs
[9] = Hemolytic activity in mouse RBC assessed as hemolysis at 0.1 mM measured after 5 hrs; assay type: toxicity, cell-based, Erythrocyte; conditions: mouse red blood cells, read-out: Activity
Mus musculus [10] = species: Mus musculus; assay: Antioxidant activity in mouse brain homogenate assessed as inhibition of FeSO4/ascorbic acid induced lipid autoxidation by measuring reduction in TBARS formation at 0.5 mM preincubated with isopropanol for 30 mins followed by compound addition for 30 mins and measured 1 hrs after FeSO4/ascorbic acid addition by TBARS assay; assay type: functional; conditions: time 1.5 hrs
Erythrocyte [11] = assay: Antioxidant activity in H2O2-induced mouse RBC assessed as inhibition of lipid peroxidation by measuring MDA formation at 0.01 mM preincubated with compound for 30 mins followed by H2O2 addition and measured after 4 hrs by spectrophotometric analysis; assay type: functional, cell-based; conditions: time 4.5 hrs
Erythrocyte [12] = assay: Antioxidant activity in H2O2-induced mouse RBC cells assessed as reduction in metHB/oxyHB ratio at 0.01 mM preincubated with compound for 30 mins followed by H2O2 addition and measured after 5 hrs; assay type: functional, cell-based; conditions: time 5.5 hrs
Erythrocyte [13] = assay: Antioxidant activity in mouse RBC assessed as inhibition of H2O2-induced hemolytic activity at 0.01 mM preincubated with compound for 30 mins followed by H2O2 addition and measured at 1 to 3 hrs; assay type: functional, cell-based; conditions: time 1.5-3.5 hrs

| Compound | Activity (Erythrocyte [1]) | Activity (Mus musculus [2]) | Activity (Mus musculus [3]) | Activity (Erythrocyte [4]) | Activity [5] [%] | Activity [6] [%] | Activity (Erythrocyte [7]) | Activity (Erythrocyte [8]) | hemolysis at 5 h, 100 µM [9] [%] | Activity (Mus musculus [10]) | Activity (Erythrocyte [11]) | Activity (Erythrocyte [12]) | Activity (Erythrocyte [13]) |
| --- | --- | --- | --- | --- | --- | --- | --- | --- | --- | --- | --- | --- | --- |
| C=CCc1ccc(OC)cc1 | Active | inactive | Active | Active | 0.25 | 1.16 | inactive | Active | – | – | – | – | – |
| C=CCc1ccc2c(c1)OCO2 [SAFROLE] | Active | inactive | Active | Active | 1.26 | 10.6 | inactive | Active | ≤ 10 | – | – | – | – |
| C=CCc1cc(OC)c2c(c1OC)OCO2 [APIOL] | Active | Active | Active | Active | 0.05 | 0.3 | inactive | Active | ≤ 10 | inactive | – | – | – |
| C=CCc1cc(OC)c2c(c1)OCO2 [ELEMICIN] | Active | Active | Active | Active | 1.31 | 5.25 | Active | Active | – | inactive | – | – | – |
| C=CCc1cc(OC)c(OC)c(OC)c1OC | Active | inactive | Active | Active | 0.1 | 1.47 | inactive | Active | – | – | – | – | – |
| C=CCc1ccccc1 | Active | inactive | Active | Active | 1.01 | 4.29 | inactive | Active | – | – | – | – | – |
| Cc1c(C)c2c(c(C)c1O)CCC(C)(C(=O)O)O2 (stereo unspecified) | – | Active | – | – | 94.9 | – | – | – | – | – | – | – | – |
| C=CCc1c(OC)c(OC)c2c(c1OC)OCO2 | – | Active | Active | inactive | 0.91 | 4.3 | – | – | – | inactive | inactive | – | – |
| Cc1cc(C(C)(C)C)c(O)c(C(C)(C)C)c1 | Active | Active | – | – | 72 | – | – | Active | – | – | Active | Active | – |
| C=CCc1cc2c(c(OC)c1OC)OCO2 [DILLAPIOLE] | Active | Active | Active | Active | 0.38 | 3.94 | Active | Active | ≤ 10 | inactive | – | Active | – |
| C=CCc1c(O)c(OC)c2c(c1OC)OCO2 | – | Active | Active | Active | 88.9 | 90.2 | – | – | – | inactive | Active | – | Active |
